Test results from PubChem BioAssay (NCI).
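Test compounds were applied to cells in 96-well plates for 48 hours at 5 doses. TGI denotes the concentration required for complete inhibition of growth.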

What was measured:
Test in all cases: NCI tumour cell line growth inhibition, 48 h
RXF-631 renal = system: RXF-631 renal
HOP-18 NSCLC = system: HOP-18 NSCLC
P388 leukemia = system: P388 leukemia
P388/ADR leukemia = system: P388/ADR leukemia
SN12K1 renal = system: SN12K1 renal

Row | SMILES | TGI (RXF-631 renal) [µM] | TGI (HOP-18 NSCLC) [µM] | further results
1 | Cc1[nH]n(-c2ccccc2)c(=S)c1C(=O)c1ccccc1 | 61.6 |  | 
2 | Cc1ccc(N2C(=O)/C(=c3\s/c(=C(/N)O)c(=N)n3-c3ccccc3)SC2=S)cc1 |  | > 100 | 
3 | Cc1ccc(S(=O)(=O)C2=c3ncccc3=C3C(=O)c4ccccc4C(=O)C32)cc1 (stereo unspecified) |  | > 100 | 
4 | Cc1ccc2c(c1)NC(=O)C(N=[N+]=[N-])(c1ccccc1)C2=O (stereo unspecified) |  | 88.3 | 
5 | C(/COc1cccnc1)=N\NC1=NCCN1 |  | > 100 | 
6 | CC(C)NC(C)Cc1ccccc1 (stereo unspecified) | > 100 | > 100 | 
7 | CCN(CC)CC(C)(C)C(=O)/C=C/c1ccc(C)cc1 | 55.7 | 23.6 | 
8 | C[n+]1c2ccccc2c(NC(CCC(N)=O)C(=O)O)c2ccccc21 (stereo unspecified) | > 100 | > 100 | 
9 | Nc1nc(=O)n(C2OC(CO)C(O)C2O)cc1F (stereo unspecified) |  | > 100 | TGI (P388 leukemia): 0.0341 µM; TGI (P388/ADR leukemia): 0.182 µM; TGI (SN12K1 renal): > 100 µM
10 | CCOc1ccc(N=Cc2cc(OC)c(OC)c(OC)c2)cc1 |  | > 100 | 
